Laboratory results published in patent publication US20240166646A1, “1H-PYRROLO[2,3-B]PYRIDINE DERIVATIVES AS BCL-2 INHIBITORS FOR THE TREATMENT OF NEOPLASTIC AND AUTOIMMUNE DISEASES” (Newave Pharmaceutical Inc., priority 2020, published 2024).
Where a name gives a salt, the structure may show the parent alone.

Assays:
Bcl-2 = Bcl-2 (Homo sapiens (Human), UniProt P10415); experiment: Bcl-2 competition binding (fluorescence polarization) assay; conditions: fluorescein labeled BH3 peptide 15 nM, Bcl-2 protein 30 nM, 3 hours of incubation at room temperature
Procedure, shortened: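 Fluorescence polarization competition of 15 nM labeled 23-mer BH3 peptide with 30 nM purified Bcl-2, in 20 mM Hepes pH 7.0, 50 mM KCl, 5 mM MgCl2, 20 mM Na2MoO4, 0.1 mg/ml bovine gamma globulin, 0.01% NP40. Compounds 20 μM to 2 nM final; mP read after 3 h at room temperature, background-subtracted. IC50 from sigmoidal dose-response fit.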

[1] = tested on: BCL-2-dependent acute lymphoblastic leukemia (ALL) cell line RS4; 11 with G101V mutation; experiment: In vitro anti-proliferation assay (ATPlite) in RS4; 11 with G101V mutation; assay type: cell-based; conditions: about 72 hours incubation, medium with 5% FBS or 10% normal human serum, ATPlite luminescence
Procedure: Cell antiproliferation was assayed by PerkinElmer ATPlite™ Luminescence Assay System. Briefly, the various test cancer cell lines were plated at a density of about 1×10^4 cells per well in Costar 96-well plates, and were incubated with different concentrations of compounds for about 72 hours in medium supplemented with 5% FBS or 10% normal human serum (NHS). One lyophilized substrate solution vial was then reconstituted by adding 5 mL of substrate buffer solution, and was agitated gently until the solution was homogeneous. About 50 μL of mammalian cell lysis solution was added to 100 μL of cell suspension per well of a microplate, and the plate was shaken for about five minutes in an orbital shaker at ˜700 rpm. This procedure was used to lyse the cells and to stabilize the ATP. Next, 50 μL substrate solution was added to the wells and microplate was shaken for five minutes in an orbital shaker at ˜700 rpm. Finally, the luminescence was measured by a PerkinElmer TopCount® Microplate Scintillation Counter. Such assays, carried out with a range of doses of test compounds, allowed the determination of the cellular anti-antiproliferative IC50 of the compounds of the present invention.

Sequence of Bcl-2 (P10415 whole entry): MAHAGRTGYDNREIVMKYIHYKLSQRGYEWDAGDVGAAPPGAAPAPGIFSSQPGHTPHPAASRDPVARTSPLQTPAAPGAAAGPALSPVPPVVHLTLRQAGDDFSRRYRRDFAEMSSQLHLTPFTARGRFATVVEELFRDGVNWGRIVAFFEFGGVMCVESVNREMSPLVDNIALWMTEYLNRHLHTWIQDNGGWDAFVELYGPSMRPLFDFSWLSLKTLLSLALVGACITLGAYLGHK

| Compound | IC50 (Bcl-2) | IC50 [1] | IC50 ([1]; RS4-11) |
| --- | --- | --- | --- |
| C=C(C)c1ccccc1[C@@H]1CCCN1C1CC2(CCN(c3ccc(C(=O)NS(=O)(=O)c4ccc(NCC5CCOCC5)c([N+](=O)[O-])c4)c(N4c5cc6cc[nH]c6nc5O[C@@H]5COC[C@H]54)c3)CC2)C1 [Example 5, 2-[(11R,15S)-13,16-dioxa-2,4,10-triazatetracyclo[7.7.0.0^{3,7}.0^{11,15}]hexadeca-1(9),2,5,7-tetraen-10-yl]-N-{3-nitro-4-[(oxan-4-ylmethyl)amino]benzenesulfonyl}-4-{2-[(2S)-2-[2-(prop-1-en-2-yl)phenyl]pyrrolidin-1-yl]-7-azaspiro[3.5]nonan-7-yl}benzamide hydrochloride] | 0.067 nM | 9.5 nM | – |
| Cc1ccccc1[C@@H]1CCCN1C1CC2(CCN(c3ccc(C(=O)NS(=O)(=O)c4ccc(NCC5CCC(C)(O)CC5)c([N+](=O)[O-])c4)c(N4c5cc6cc[nH]c6nc5O[C@@H]5COC[C@H]54)c3)CC2)C1 (stereo partly drawn) [Example 40, N-((4-((((1s,4s)-4-hydroxy-4-methylcyclohexyl)methyl)amino)-3-nitrophenyl)sulfonyl)-2-((5aR,8aS)-5a,6,8,8a-tetrahydrofuro[3,4-b]pyrrolo[3′,2′:5,6]pyrido[3,2-e][1,4]oxazin-5(1H)-yl)-4-(2-((S)-2-(o-tolyl)pyrrolidin-1-yl)-7-azaspiro[3.5]nonan-7-yl)benzamide] | 0.2 nM | 34.7 nM | – |
| CC(C)Oc1ccccc1[C@@H]1CCCN1C1CC2(CCN(c3ccc(C(=O)NS(=O)(=O)c4ccc(NCC5CCC(C)(O)CC5)c([N+](=O)[O-])c4)c(N4c5cc6cc[nH]c6nc5O[C@@H]5COC[C@H]54)c3)CC2)C1 (stereo partly drawn) [Example 44, N-((4-((((1s,4s)-4-hydroxy-4-methylcyclohexyl)methyl)amino)-3-nitrophenyl)sulfonyl)-4-(2-((S)-2-(2-isopropoxyphenyl)pyrrolidin-1-yl)-7-azaspiro[3.5]nonan-7-yl)-2-((5aR,8aS)-5a,6,8,8a-tetrahydrofuro[3,4-b]pyrrolo[3′,2′:5,6]pyrido[3,2-e][1,4]oxazin-5(1H)-yl)benzamide] | 0.179 nM | 98.3 nM | – |
| Cc1ccccc1[C@@H]1CCCN1C1CC2(CCN(c3ccc(C(=O)NS(=O)(=O)c4ccc(NCC5CCC(C)(O)CC5)c([N+](=O)[O-])c4)c(N4c5cc6cc[nH]c6nc5O[C@@H]5COC[C@H]54)c3)CC2)C1 (stereo partly drawn) [Example 41, N-((4-((((1r,4r)-4-hydroxy-4-methylcyclohexyl)methyl)amino)-3-nitrophenyl)sulfonyl)-2-((5aR,8aS)-5a,6,8,8a-tetrahydrofuro[3,4-b]pyrrolo[3′,2′:5,6]pyrido[3,2-e][1,4]oxazin-5(1H)-yl)-4-(2-((S)-2-(o-tolyl)pyrrolidin-1-yl)-7-azaspiro[3.5]nonan-7-yl)benzamide] | 0.18 nM | 14.7 nM | – |
| O=C(NS(=O)(=O)c1ccc(NCC2CCOCC2)c([N+](=O)[O-])c1)c1ccc(N2CCC3(CC2)CC(N2CCC[C@H]2c2ccccc2C2CC2)C3)cc1N1c2cc3cc[nH]c3nc2O[C@@H]2COC[C@H]21 [Example 8, 4-{2-[(2S)-2-(2-cyclopropylphenyl)pyrrolidin-1-yl]-7-azaspiro[3.5]nonan-7-yl}-2-[(11R,15S)-13,16-dioxa-2,4,10-triazatetracyclo[7.7.0.0^{3,7}.0^{11,15}]hexadeca-1(9),2,5,7-tetraen-10-yl]-N-{3-nitro-4-[(oxan-4-ylmethyl)amino]benzenesulfonyl}benzamide hydrochloride] | 0.066 nM | 9.1 nM | – |
| CC(C)Oc1ccccc1[C@@H]1CCCN1C1CC2(CCN(c3ccc(C(=O)NS(=O)(=O)c4ccc(NCC5CCOCC5)c([N+](=O)[O-])c4)c(N4c5cc6cc[nH]c6nc5O[C@@H]5COC[C@H]54)c3)CC2)C1 [Example 20, 2-[(11R,15S)-13,16-dioxa-2,4,10-triazatetracyclo[7.7.0.0^{3,7}.0^{11,15}]hexadeca-1(9),2,5,7-tetraen-10-yl]-4-{2-[(2S)-2-(2-isopropoxyphenyl)pyrrolidin-1-yl]-7-azaspiro[3.5]nonan-7-yl}-N-{3-nitro-4-[(oxan-4-ylmethyl)amino]benzenesulfonyl}benzamide] | 0.299 nM | 60.4 nM | – |
| CNc1ccccc1[C@@H]1CCCN1C1CC2(CCN(c3ccc(C(=O)NS(=O)(=O)c4ccc(NCC5CCOCC5)c([N+](=O)[O-])c4)c(N4c5cc6cc[nH]c6nc5O[C@@H]5COC[C@H]54)c3)CC2)C1 [Example 17, 2-[(11R,15S)-13,16-dioxa-2,4,10-triazatetracyclo[7.7.0.0^{3,7}.0^{11,15}]hexadeca-1(9),2,5,7-tetraen-10-yl]-4-{2-[(2S)-2-[2-(methylamino)phenyl]pyrrolidin-1-yl]-7-azaspiro[3.5]nonan-7-yl}-N-{3-nitro-4-[(oxan-4-ylmethyl)amino]benzenesulfonyl}benzamide] | 0.225 nM | 99.5 nM | – |
| CC(C)Oc1ccccc1[C@@H]1CCCN1C1CC2(CCN(c3ccc(C(=O)NS(=O)(=O)c4ccc(NCC5CCOCC5)c([N+](=O)[O-])c4)c(N4c5cc6cc[nH]c6nc5O[C@H]5COCC[C@@H]54)c3)CC2)C1 [Example 62, 4-(2-((S)-2-(2-isopropoxyphenyl)pyrrolidin-1-yl)-7-azaspiro[3.5]nonan-7-yl)-N-((3-nitro-4-(((tetrahydro-2H-pyran-4-yl)methyl)amino)phenyl)sulfonyl)-2-((5aS,9aR)-6,7,9,9a-tetrahydro. 1H-pyrano[3,4-b]pyrrolo[3′,2′:5,6]pyrido[3,2-e][1,4]oxazin-5(5aH)-yl)benzamide hydrochloride] | 0.41 nM | 121 nM | – |
| CC(C)Oc1ccccc1[C@@H]1CCCN1C1CC2(CCN(c3ccc(C(=O)NS(=O)(=O)c4ccc(NCC5CCOCC5)c([N+](=O)[O-])c4)c(N4c5cc6cc[nH]c6nc5O[C@H]5CCOC[C@@H]54)c3)CC2)C1 [Example 58, 4-(2-((S)-2-(2-isopropoxyphenyl)pyrrolidin-1-yl)-7-azaspiro[3.5]nonan-7-yl)-N-((3-nitro-4-(((tetrahydro-2H-pyran-4-yl)methyl)amino)phenyl)sulfonyl)-2-((5aS,9aS)-5a,8,9,9a-tetrahydro-6H-pyrano[4,3-b]pyrrolo[3′,2′:5,6]pyrido[3,2-e][1,4]oxazin-5(1H)-yl)benzamide] | 0.324 nM | – | 188 nM |
| Cc1ccccc1[C@@H]1CCCN1C1CC2(CCN(c3ccc(C(=O)NS(=O)(=O)c4ccc(NCC5CCOCC5)c([N+](=O)[O-])c4)c(N4C[C@H]5CCOC[C@@H]5Oc5nc6[nH]ccc6cc54)c3)CC2)C1 [Example 68, 2-[(3R,8R)-2,5-dioxa-10,16,18-triazatetracyclo[9.7.0.0^{3,8}.0^{13,17}]octadeca-1(11),12,14,17-tetraen-10-yl]-4-{2-[(2S)-2-(2-methylphenyl)pyrrolidin-1-yl]-7-azaspiro[3.5]nonan-7-yl}-N-{3-nitro-4-[(oxan-4-ylmethyl)amino]benzenesulfonyl}benzamide] | 0.303 nM | 40.7 nM | – |
| CC(C)c1ccccc1[C@@H]1CCCN1C1CC2(CCN(c3ccc(C(=O)NS(=O)(=O)c4ccc(NC[C@H]5CC[C@@](C)(O)CC5)c([N+](=O)[O-])c4)c(N4c5cc6cc[nH]c6nc5O[C@@H]5COC[C@H]54)c3)CC2)C1 [Example 3-0B] | 0.13 nM | 25 nM | – |
| Cc1ccccc1[C@@H]1COCCN1C1CC2(CCN(c3ccc(C(=O)NS(=O)(=O)c4ccc(NCC5CCOCC5)c([N+](=O)[O-])c4)c(N4c5cc6cc[nH]c6nc5O[C@@H]5COC[C@H]54)c3)CC2)C1 [Example 50, N-((3-nitro-4-(((tetrahydro-2H-pyran-4-yl)methyl)amino)phenyl)sulfonyl)-2-((5aR,8aS)-5a,6,8,8a-tetrahydrofuro[3,4-b]pyrrolo[3′,2′:5,6]pyrido[3,2-e][1,4]oxazin-5(1H)-yl)-4-(2-((R)-3-(o-tolyl)morpholino)-7-azaspiro[3.5]nonan-7-yl)benzamide] | 0.265 nM | – | 71.8 nM |
| CC#Cc1ccccc1[C@@H]1CCCN1C1CC2(CCN(c3ccc(C(=O)NS(=O)(=O)c4ccc(NCC5CCOCC5)c([N+](=O)[O-])c4)c(N4c5cc6cc[nH]c6nc5O[C@@H]5COC[C@H]54)c3)CC2)C1 [Example 47, N-((3-nitro-4-(((tetrahydro-2H-pyran-4-yl)methyl)amino)phenyl)sulfonyl)-4-(2-((S)-2-(2-(prop-1-yn-1-yl)phenyl)pyrrolidin-1-yl)-7-azaspiro[3.5]nonan-7-yl)-2-((5aR,8aS)-5a,6,8,8a-tetrahydrofuro[3,4-b]pyrrolo[3′,2′:5,6]pyrido[3,2-e][1,4]oxazin-5(1H)-yl)benzamide] | 0.307 nM | – | 288 nM |
| CCc1ccccc1[C@@H]1CCCN1C1CC2(CCN(c3ccc(C(=O)NS(=O)(=O)c4ccc(NCC5CCOCC5)c([N+](=O)[O-])c4)c(N4c5cc6cc[nH]c6nc5O[C@@H]5COC[C@H]54)c3)CC2)C1 [Example 7, 2-[(11R,15S)-13,16-dioxa-2,4,10-triazatetracyclo[7.7.0.0^{3,7}.0^{11,15}]hexadeca-1(9),2,5,7-tetraen-10-yl]-4-{2-[(2S)-2-(2-ethylphenyl)pyrrolidin-1-yl]-7-azaspiro[3.5]nonan-7-yl}-N-{3-nitro-4-[(oxan-4-ylmethyl)amino]benzenesulfonyl}benzamide hydrochloride] | 0.066 nM | 11.5 nM | – |
